The values below are quoted from earlier work in US10851274B2, “Coolant mixtures for use in heat-exchange devices in the aerospace field” (Safran Electrical & Power, priority 2016, dated 2020).

Molecules are shown by their SMILES.

The conditions of data set [1]: known fluids, water and antigels; criterion >500.
The conditions of data set [2]: for Toxicity: known coolant fluids, water and antigels, criterion: No; for Toxicity (in words): known fluids.
The conditions of data set [3]: known fluids; for FP: water and antigels, criterion ≥23.
The conditions of data set [4]: known fluids, water and antigels; criterion <100.

As for `CCOCC(C)O` (stereo not shown) [1-ethoxy-2-propanol], in data set [1], the ΔHvap was 308 kJ/kg. For the same compound, in data set [2], the Toxicity result is on record as “No (a fluid is non-toxic if its oral LD50 is greater than 500 mg/kg)”. Moreover, in data set [3], the FP is 42 °C. The Tb in data set [4] was 132 °C.

Turning to `COCC(C)O` (stereo not shown) [1-methoxy-2-propanol], the ΔHvap in data set [1] is listed as 461 kJ/kg. For the same compound, the Toxicity entry in data set [2] was “No (a fluid is non-toxic if its oral LD50 is greater than 500 mg/kg)”. Further, the FP in data set [3] is 34 °C. Besides, the Tb in data set [4] was 118 °C.

As for `CC(C)=O` [Acetone], in data set [1], the ΔHvap is 501 kJ/kg. In addition, in data set [2], the Toxicity result was “No (a fluid is non-toxic if its oral LD50 is greater than 500 mg/kg)”. Further, in data set [3], the “Flammability (in words)” value was “highly flammable” and the FP is −20 °C. In data set [4], the Tb is 57 °C.

On to `N` [Ammoniac, ammonia], for which the ΔHvap in data set [1] was 1371 kJ/kg. Also, in data set [2], the Toxicity result is on record as “Yes” and the “Toxicity (in words)” value was “toxic”. Moreover, in data set [3], the FP was 132 °C. Further, in data set [4], the Tb was −33 °C.

As for `O=C=O` [Carbon dioxide], the ΔHvap in data set [1] is 400 kJ/kg. In data set [2], the Toxicity entry is “No (a fluid is non-toxic if its oral LD50 is greater than 500 mg/kg)”. In data set [3], the FP entry was “None”. Also, the Tb in data set [4] is −57 °C.

Consider `CCO` [Ethanol], for which the ΔHvap in data set [1] is listed as 837 kJ/kg. Besides, the Toxicity entry in data set [2] is “No (a fluid is non-toxic if its oral LD50 is greater than 500 mg/kg)”. Further, in data set [3], the “Flammability (in words)” value is recorded as “highly flammable” and the FP is 13 °C. Besides, the Tb in data set [4] is 78 °C.

Consider `CCOC(F)(F)C(F)(F)C(F)(F)C(F)(F)F` [HFE 3M Novec 7100, ethoxynonafluorobutane], for which the ΔHvap in data set [1] is recorded as 126 kJ/kg. Also, the Toxicity entry in data set [2] is reported as “No (a fluid is non-toxic if its oral LD50 is greater than 500 mg/kg)”. The FP entry in data set [3] is given as “None”. The Tb in data set [4] is 76 °C.

With `CO` [Methanol], in data set [1], the ΔHvap is recorded as 1098 kJ/kg. Further, the Toxicity result in data set [2] was “Yes”. Besides, in data set [3], the “Flammability (in words)” value is listed as “highly flammable” and the FP is 11 °C. Moreover, the Tb in data set [4] is 64 °C.

Regarding `CC(O)CO` (stereo not shown) [Propylene-glycol, propylene glycol], the ΔHvap in data set [1] is recorded as 736 kJ/kg. For the same compound, the Toxicity result in data set [2] is on record as “No (a fluid is non-toxic if its oral LD50 is greater than 500 mg/kg)”. The FP in data set [3] is 107 °C. Also, the Tb in data set [4] is 187 °C.

Take `O` [Water]: in data set [2], the Toxicity result is “No (a fluid is non-toxic if its oral LD50 is greater than 500 mg/kg)” and the “Toxicity (in words)” value is “non-toxic”. Moreover, in data set [3], the “Flammability (in words)” value is “fireproof” and the FP result was “None”. In data set [4], the Tb is 100 °C.

In the case of `OCCO` [ethylene glycol], the “Toxicity (in words)” value in data set [2] is reported as “highly toxic”.
